From patent US9914733B2, “Biisoquinoline compounds and methods of treatment” (UNIVERSITY OF FLORIDA RESEARCH FOUNDATION, priority 2014, dated 2018)
pIC50: −log10 of the molar value. Like-named read-outs stand apart in the source and are kept apart here.

What was measured:
MDA-MB231 cells = test: Clonogenic cell survival / cell growth inhibition assay, MDA-MB231; type: cell-based, human; conditions: for pIC50: 48 h treatment, colonies counted after additional 10 days, read-out: IC50, drug concentration required for 50% growth inhibition; for toxicity to cells (result in words): MDA-MB231 cells, clonogenic assay
Method: (§1) The following human breast cancer cell lines were used in these studies: (a) Triple-positive: BT474, MCF7 and T47D, (b) Triple-negative: MDA-MB231 and MDA-MB468. Cells were grown in the following medium at 37° C. under a humidified atmosphere of 5% CO2: DMEM (BT474 cells), RPMI (MCF7 and T47D cells) and MEM (MDA-MB231 and MDA-MB468 cells). For each cell line, the medium was supplemented with 10% fetal bovine serum (Hyclone, Logan, Utah) 100 U/ml of penicillin, and 100 μg/ml of streptomycin.
(§2) Cells were trypsinized and a single cell suspension was prepared. Cells were plated at a density of 5×10^2-1×10^3 cells in 60 mm tissue culture plates. After the attachment, cells were treated with different concentrations of biisoquinolines 1a-d for 48 h. After the treatment, medium containing drug was removed and supplemented with fresh medium. Cells were allowed to grow into colonies for additional 10 days. Colonies were fixed, stained with 0.3% (w/v) methylene blue, and excess of the dye was removed after washing with PBS. Colonies containing more than fifty cells were counted and the IC50 values, i.e., drug concentrations required for 50% growth inhibition of these cell lines were determined as described in our previous studies. [Balusu, R.; Jaiswal, A. S.; Armas, M. L.; Kundu, C. N.; Bloom L, B.; Narayan S. Biochemistry 2007, 46, 13961; Jaiswal, A, S.; Banerjee, S.; Panda, H.; Bulkini, C. D.; Izumi, T.; Sarkar, F. H.; Ostrov, D. A.; Narayan, S. Mol. Cancer Res. 2009, 7, 1973] The IC50 of each compound was determined from the survival curve using the SigmaPlot-10.0 software program.
6,6′,7,7′-tetramethoxy biisoquinoline-imidazolium 1a, as well as its precursor compounds, bisamide 3a, and diimine 4a, were tested for the growth inhibitory effect on MDA-MB-231 cells by using the clonogenic cell survival assay [Balusu, R.; Jaiswal, A. S.; Armas, M. L.; Kundu, C. N.; Bloom L, B.; Narayan S. Biochemistry 2007, 46, 13961; Jaiswal, A, S.; Banerjee, S.; Panda, H.; Bulkin, C. D.; Izumi, T.; Sarkar, F. H.; Ostrov, D. A.; Narayan, S. Mol. Cancer Res. 2009, 7, 1973]. […] Then, three other methoxylated biisoquinoline-imidazolium compounds (1b-d) were tested to probe the optimal methoxy substitution pattern.

BT474 cells = test: Clonogenic cell growth inhibition assay, BT474; type: cell-based; conditions: Homo sapiens, BT-474; BT474 triple-positive breast cancer cells; 48 h treatment, colonies counted after additional 10 days; read-out: IC50, drug concentration required for 50% growth inhibition
Method: as §1, §2

MCF7 cells = test: Clonogenic cell growth inhibition assay, MCF7; type: cell-based, human; conditions: for pIC50: Homo sapiens, MCF7 triple-positive breast cancer cells, 48 h treatment, colonies counted after additional 10 days, read-out: IC50, drug concentration required for 50% growth inhibition
Method: as §1, §2

T47D cells = test: Clonogenic cell growth inhibition assay, T47D; type: cell-based, human; conditions: for pIC50: Homo sapiens, T47D triple-positive breast cancer cells, 48 h treatment, colonies counted after additional 10 days, read-out: IC50, drug concentration required for 50% growth inhibition
Method: as §1, §2

MDA-MB468 cells = test: Clonogenic cell growth inhibition assay, MDA-MB468; type: cell-based; conditions: Homo sapiens, MDA-MB-468; MDA-MB468 triple-negative breast cancer cells; 48 h treatment, colonies counted after additional 10 days; read-out: IC50, drug concentration required for 50% growth inhibition
Method: as §1, §2

[1] = Homo sapiens, MDA-MB-231, MDA-MB231 triple-negative breast cancer cells
[2] = MDA-MB231 triple-negative breast cancer cells

| SMILES | pIC50 (MDA-MB231 cells; [1]) | pIC50 (MDA-MB231 cells; [2]) | pIC50 (BT474 cells) | pIC50 (MCF7 cells) | pIC50 (T47D cells) | pIC50 (MDA-MB468 cells) | toxicity to cells (result in words) (MDA-MB231 cells) | sensitivity of cells to the compound (result in words) (MCF7 cells; MCF7 cells, clonogenic assay) | sensitivity of cells to the compound (result in words) (T47D cells; T47D cells, clonogenic assay) | fold higher IC50 than compound 1c (MDA-MB231 cells; MDA-MB-231 cells, IC50 of noscapine relative to IC50 of 1c) | fold higher IC50 than compound 1c (MCF7 cells; MCF7 cells, IC50 of noscapine relative to IC50 of 1c) |
| --- | --- | --- | --- | --- | --- | --- | --- | --- | --- | --- | --- |
| COc1cc2c(cc1OC)-c1c3[n+](cn1CC2)CCc1cc(OC)c(OC)cc1-3 [1a, 2,2′,3,3′-tetramethoxy-5,6,8,9-tetrahydro-6a,7a-diazadibenzo[c,g]fluorenium]chloride] | 4.72 | 4.68 | 5.51 | 4.46 | 4.47 | 5.59 |  |  |  |  |  |
| COc1ccc2c(c1OC)CCn1c[n+]3c(c1-2)-c1ccc(OC)c(OC)c1CC3 [1b, 3,3′,4,4′-tetramethoxy-5,6,8,9-tetrahydro-6a,7a-diazadibenzo[c,g]fluorenium]chloride] | 4.74 | 4.85 | 6.15 | 5.10 | 4.87 | 5.68 |  |  |  |  |  |
| COc1ccc2c(c1)CCn1c[n+]3c(c1-2)-c1ccc(OC)cc1CC3 [1c, 3,3′-dimethoxy-5,6,8,9-tetrahydro-6a,7a-diazadibenzo[c,g]fluorenium]chloride] | 5.33 | 5.62 | 6.52 | 5.89 | 6.00 | 5.74 |  |  |  |  |  |
| COc1cc2c(c(OC)c1OC)CCn1c[n+]3c(c1-2)-c1cc(OC)c(OC)c(OC)c1CC3.[Cl-] [1d, 2,2′,3,3′,4,4′-hexamethoxy-5,6,8,9-tetrahydro-6a,7a-diazadibenzo[c,g]fluorenium]chloride] |  |  |  |  |  |  | did not show any toxicity |  |  |  |  |
| COc1cccc(CCNC(=O)C(=O)NCCc2cccc(OC)c2OC)c1OC [3b, N^1,N^2-bis(2,3-dimethoxyphenethyl)oxalamide] |  |  | 4.47 |  |  | 4.45 | did not show any cytotoxicity | resistant | resistant |  |  |
| COc1cc2c(cc1OC)C(C1=NCCc3cc(OC)c(OC)cc31)=NCC2 [4a, 6,6′,7,7′-tetramethoxy-3,3′,4,4′-tetrahydro-1,1′-biisoquinoline] |  |  |  |  |  |  | non-toxic |  |  |  |  |
| COc1ccc2c(c1OC)C(=O)O[C@@H]2[C@H]1c2c(cc3c(c2OC)OCO3)CCN1C [noscapine, reference compound] | 4.19 |  |  | 4.24 |  |  |  |  |  | 16 folds | 44 folds |
